According to patent publication US20090215778A1, “Alpha-substituted Arylmethyl Piperazine Pyrazolo [1,5-alpha]Pyrimidine Amide Derivatives” (priority 2007, published 2009):
pIC50: −log10 of the molar value.

Tests used:
[1] = target: T1, HIV Env six-helix bundle (6HB) structure (Human immunodeficiency virus type 1 group M subtype B, UniProt P04579); experiment: Six-helix bundle (6HB) assay; format: cell-based, HIV-1 (strain RF)
T1 construct: H9 cells chronically infected with HIV-1 (H9/HIV-1RF); endogenous in cells; host or cells: H9 cells chronically infected with HIV-1 strain RF (Env is made from the virus in the infected cells, not by transfection)
Outline: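 Chronically HIV-1 RF-infected H9 cells (12-40 days post-infection), 2.5×10^5 per well, were preincubated with compound for 30 min at 37 °C. sCD4 at 1 μg/mL was added for 1 h to trigger Env changes. 6HB-specific rabbit serum (1 h, 37 °C) was then added, followed by PE anti-rabbit (45 min, 4 °C), with flow cytometric fluorescence read-out.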

[2] = tested on: HIV-1, NL4-3 strain; experiment: Virus infection assay (virus entry and single-cycle infection); format: cell-based; details: Human immunodeficiency virus 1, NL43, TZM-b1, read-out: Nl4
Outline: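 TZM-b1 cells (CD4, CXCR4, CCR5; LTR-driven lacZ/luciferase reporters) were infected with HIV-1 NL4-3 (MOI 0.01) with 80 μg/mL DEAE-dextran in the presence of test compound, 4 h at 37 °C before adding complete medium. Infection was quantified one day post-infection as chemiluminescent β-galactosidase signal.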

T1 sequence (P04579 32-519): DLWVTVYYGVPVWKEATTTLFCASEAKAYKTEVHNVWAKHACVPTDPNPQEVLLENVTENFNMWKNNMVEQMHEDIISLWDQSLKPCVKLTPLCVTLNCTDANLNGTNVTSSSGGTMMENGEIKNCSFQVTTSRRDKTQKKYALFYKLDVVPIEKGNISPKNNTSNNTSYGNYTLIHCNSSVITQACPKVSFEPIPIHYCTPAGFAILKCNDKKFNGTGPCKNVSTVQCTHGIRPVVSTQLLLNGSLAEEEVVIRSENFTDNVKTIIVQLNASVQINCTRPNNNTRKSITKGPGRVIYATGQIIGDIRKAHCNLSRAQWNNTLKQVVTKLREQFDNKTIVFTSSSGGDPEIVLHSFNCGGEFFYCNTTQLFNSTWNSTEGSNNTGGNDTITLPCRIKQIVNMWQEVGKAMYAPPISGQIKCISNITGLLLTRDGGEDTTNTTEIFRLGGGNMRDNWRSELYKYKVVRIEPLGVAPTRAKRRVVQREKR
T1 sequence (P04579 520-865): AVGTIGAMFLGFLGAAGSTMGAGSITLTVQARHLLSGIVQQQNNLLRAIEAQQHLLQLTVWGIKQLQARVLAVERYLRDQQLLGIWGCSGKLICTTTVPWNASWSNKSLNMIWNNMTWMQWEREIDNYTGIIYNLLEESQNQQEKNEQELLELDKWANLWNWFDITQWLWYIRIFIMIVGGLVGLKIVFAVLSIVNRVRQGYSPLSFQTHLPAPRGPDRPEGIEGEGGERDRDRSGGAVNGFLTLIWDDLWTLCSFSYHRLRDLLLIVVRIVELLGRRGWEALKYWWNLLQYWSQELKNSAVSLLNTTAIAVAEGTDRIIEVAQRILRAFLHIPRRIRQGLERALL

Compound	pIC50 [1]	pIC50 [2]
COc1ccc(-c2nc3c(C(=O)N4CCN([C@H](CO)c5ccccc5F)C[C@H]4C)cnn3c(C(F)(F)F)c2C)cc1 [methanone, [(2R)-4-[(1S)-1-(2-fluorophenyl)-2-hydroxyethyl]-2-methyl-1-piperazinyl][5-(4-methoxyphenyl)-6-methyl-7-(trifluoromethyl)pyrazolo[1,5-α]pyrimidin-3-yl]-]	> 6.00	> 6.00
COc1ccc(-c2nc3c(C(=O)N4CCN(C(CO)c5c(F)cccc5OC)C[C@H]4C)cnn3c(C(F)(F)F)c2C)cc1 (stereo partly drawn) [methanone, [(2R)-4-[1-(2-fluoro-6-methoxyphenyl)-2-hydroxyethyl]-2-methyl-1-piperazinyl][5-(4-methoxyphenyl)-6-methyl-7-(trifluoromethyl)pyrazolo[1,5-α]pyrimidin-3-yl]-]	> 6.00	> 6.00
COc1ccc(-c2nc3c(C(=O)N4CCN(C(CO)c5cccc(F)c5F)C[C@H]4C)cnn3c(C(F)(F)F)c2C)cc1 (stereo partly drawn) [methanone, [(2R)-4-[1-(2,3-difluorophenyl)-2-hydroxyethyl]-2-methyl-1-piperazinyl][5-(4-methoxyphenyl)-6-methyl-7-(trifluoromethyl)pyrazolo[1,5-α]pyrimidin-3-yl]-]	> 6.00	> 6.00
COc1ccc(-c2nc3c(C(=O)N4CCN(C(CO)c5ccccc5C(F)(F)F)C[C@H]4C)cnn3c(C(F)(F)F)c2C)cc1 (stereo partly drawn) [methanone, [(2R)-4-[2-hydroxy-1-[2-(trifluoromethyl)phenyl]ethyl]-2-methyl-1-piperazinyl][5-(4-methoxyphenyl)-6-methyl-7-(trifluoromethyl)pyrazolo[1,5-α]pyrimidin-3-yl]-]	> 6.00	> 6.00
COc1ccc(-c2nc3c(C(=O)N4CCN(C(CO)c5cccc6c5OC(F)(F)O6)C[C@H]4C)cnn3c(C(F)(F)F)c2C)cc1 (stereo partly drawn) [methanone, [(2R)-4-[1-(2,2-difluoro-1,3-benzodioxol-4-yl)-2-hydroxyethyl]-2-methyl-1-piperazinyl][5-(4-methoxyphenyl)-6-methyl-7-(trifluoromethyl)pyrazolo[1,5-α]pyrimidin-3-yl]-]	> 6.00	> 6.00
COc1ccc(-c2nc3c(C(=O)N4CCN(C(CO)c5cc(F)cc(F)c5F)C[C@H]4C)cnn3c(C(F)(F)F)c2C)cc1 (stereo partly drawn) [methanone, [(2R)-4-[2-hydroxy-1-(2,3,5-trifluorophenyl)ethyl]-2-methyl-1-piperazinyl][5-(4-methoxyphenyl)-6-methyl-7-(trifluoromethyl)pyrazolo[1,5-α]pyrimidin-3-yl]-]	> 6.00	> 6.00
C=CCN(C)CC(c1ccccc1)N1CCN(C(=O)c2cnn3c(C(F)(F)F)c(C)c(-c4ccc(OC)cc4)nc23)[C@H](C)C1 (stereo partly drawn) [methanone, [5-(4-methoxyphenyl)-6-methyl-7-(trifluoromethyl)pyrazolo[1,5-α]pyrimidin-3-yl][(2R)-2-methyl-4-[2-(methyl-2-propen-1-ylamino)-1-phenylethyl]-1-piperazinyl]]	> 6.00	> 6.00
COc1ccc(-c2nc3c(C(=O)N4CCN([C@@H](C)c5ccccc5)C[C@H]4C)cnn3c(C(F)(F)F)c2C)cc1 [methanone, [5-(4-methoxyphenyl)-6-methyl-7-(trifluoromethyl)pyrazolo[1,5-α]pyrimidin-3-yl][(2R)-2-methyl-4-[(1S)-1-phenylethyl]-1-piperazinyl]-]	> 6.00	> 6.00
COc1ccc(-c2nc3c(C(=O)N4CCN(C(CO)c5cc(F)ccc5F)C[C@H]4C)cnn3c(C(F)(F)F)c2C)cc1 (stereo partly drawn) [methanone, [(2R)-4-[1-(2,5-difluorophenyl)-2-hydroxyethyl]-2-methyl-1-piperazinyl][5-(4-methoxyphenyl)-6-methyl-7-(trifluoromethyl)pyrazolo[1,5-α]pyrimidin-3-yl]-]	> 6.00	> 6.00
COc1ccc(-c2nc3c(C(=O)N4CCN([C@@H](CO)c5c(C)noc5C)C[C@H]4C)cnn3c(C(F)(F)F)c2C)cc1 [methanone, [(2R)-4-[(1R)-1-(3,5-dimethyl-4-isoxazolyl)-2-hydroxyethyl]-2-methyl-1-piperazinyl][5-(4-methoxyphenyl)-6-methyl-7-(trifluoromethyl)pyrazolo[1,5-α]pyrimidin-3-yl]-]	5.00 to 5.96	5.00 to 5.96
COc1ccc(-c2nc3c(C(=O)N4CCN(C(CO)c5ccc(OC)nc5OC)C[C@H]4C)cnn3c(C(F)(F)F)c2C)cc1 (stereo partly drawn) [methanone, [(2R)-4-[1-(2,6-dimethoxy-3-pyridinyl)-2-hydroxyethyl]-2-methyl-1-piperazinyl][5-(4-methoxyphenyl)-6-methyl-7-(trifluoromethyl)pyrazolo[1,5-α]pyrimidin-3-yl]-]	> 6.00	> 6.00
COc1ccc(-c2nc3c(C(=O)N4CCN(C(CO)c5ccccc5NC(=O)C5CC5)C[C@H]4C)cnn3c(C(F)(F)F)c2C)cc1 (stereo partly drawn) [cyclopropanecarboxamide, N-[2-[2-hydroxy-1-[(3R)-4-[[5-(4-methoxyphenyl)-6-methyl-7-(trifluoromethyl)pyrazolo[1,5-α]pyrimidin-3-yl]carbonyl]-3-methyl-1-piperazinyl]ethyl]phenyl]-]	< 5.00	< 5.00
COc1ccc(-c2nc3c(C(=O)N4CCN(C(CO)c5cccc(C(N)=O)c5)C[C@H]4C)cnn3c(C(F)(F)F)c2C)cc1 (stereo partly drawn) [benzamide, 3-[2-hydroxy-1-[(3R)-4-[[5-(4-methoxyphenyl)-6-methyl-7-(trifluoromethyl)pyrazolo[1,5-α]pyrimidin-3-yl]carbonyl]-3-methyl-1-piperazinyl]ethyl]-]	> 6.00	> 6.00
COc1ccc(-c2nc3c(C(=O)N4CCN([C@@H](C)c5cccc(NC(N)=O)c5)C[C@H]4C)cnn3c(C(F)(F)F)c2C)cc1 [urea, N-[3-[(1S)-1-[(3R)-4-[[5-(4-methoxyphenyl)-6-methyl-7-(trifluoromethyl)pyrazolo[1,5-α]pyrimidin-3-yl]carbonyl]-3-methyl-1-piperazinyl]ethyl]phenyl]-]	> 6.00	> 6.00
COc1ccc(-c2nc3c(C(=O)N4CCN(C(CO)c5ccccc5NC(C)=O)C[C@H]4C)cnn3c(C(F)(F)F)c2C)cc1 (stereo partly drawn) [acetamide, N-[2-[2-hydroxy-1-[(3R)-4-[[5-(4-methoxyphenyl)-6-methyl-7-(trifluoromethyl)pyrazolo[1,5-α]pyrimidin-3-yl]carbonyl]-3-methyl-1-piperazinyl]ethyl]phenyl]-]	< 5.00	< 5.00
COc1ccc(-c2nc3c(C(=O)N4CCN([C@H](CO)c5cscc5C)C[C@H]4C)cnn3c(C(F)(F)F)c2C)cc1 [methanone, [(2R)-4-[(1S)-2-hydroxy-1-(4-methyl-3-thienyl)ethyl]-2-methyl-1-piperazinyl][5-(4-methoxyphenyl)-6-methyl-7-(trifluoromethyl)pyrazolo[1,5-α]pyrimidin-3-yl]-]	> 6.00	> 6.00
COc1ccc(-c2nc3c(C(=O)N4CCN([C@H](c5ccccc5)C(F)(F)F)C[C@H]4C)cnn3c(C(F)(F)F)c2C)cc1 [methanone, [5-(4-methoxyphenyl)-6-methyl-7-(trifluoromethyl)pyrazolo[1,5-α]pyrimidin-3-yl][(2R)-2-methyl-4-[(1R)-2,2,2-trifluoro-1-phenylethyl]-1-piperazinyl]-]	> 6.00	> 6.00
COc1ccc(-c2nc3c(C(=O)N4CCN(C(CO)c5cccc(C(F)(F)F)c5)C[C@H]4C)cnn3c(C(F)(F)F)c2C)cc1 (stereo partly drawn) [methanone, [(2R)-4-[2-hydroxy-1-[3-(trifluoromethyl)phenyl]ethyl]-2-methyl-1-piperazinyl][5-(4-methoxyphenyl)-6-methyl-7-(trifluoromethyl)pyrazolo[1,5-α]pyrimidin-3-yl]-]	> 6.00	5.00 to 5.96
CNC(=O)C(c1ccccc1)N1CCN(C(=O)c2cnn3c(C(F)(F)F)c(C)c(-c4ccc(OC)cc4)nc23)[C@H](C)C1 (stereo partly drawn) [1-piperazineacetamide, 4-[[5-(4-methoxyphenyl)-6-methyl-7-(trifluoromethyl)pyrazolo[1,5-α]pyrimidin-3-yl]carbonyl]-N,3-dimethyl-α-phenyl-, (3R)-]	> 6.00	> 6.00
COc1ccc(-c2nc3c(C(=O)N4CCN(C(CO)c5c(F)ccc(F)c5F)C[C@H]4C)cnn3c(C(F)(F)F)c2C)cc1 (stereo partly drawn) [methanone, [(2R)-4-[2-hydroxy-1-(2,3,6-trifluorophenyl)ethyl]-2-methyl-1-piperazinyl][5-(4-methoxyphenyl)-6-methyl-7-(trifluoromethyl)pyrazolo[1,5-α]pyrimidin-3-yl]-]	> 6.00	> 6.00
COc1ccc(-c2nc3c(C(=O)N4CCN([C@@H](C)c5nccs5)C[C@H]4C)cnn3c(C(F)(F)F)c2C)cc1 [methanone, [5-(4-methoxyphenyl)-6-methyl-7-(trifluoromethyl)pyrazolo[1,5-α]pyrimidin-3-yl][(2R)-2-methyl-4-[(1S)-1-(2-thiazolyl)ethyl]-1-piperazinyl]-]	> 6.00	> 6.00
COc1ccc(-c2nc3c(C(=O)N4CCN(C(CO)c5ccc(F)cc5)C[C@H]4C)cnn3c(C(F)(F)F)c2C)cc1 (stereo partly drawn) [methanone, [(2R)-4-[1-(4-fluorophenyl)-2-hydroxyethyl]-2-methyl-1-piperazinyl][5-(4-methoxyphenyl)-6-methyl-7-(trifluoromethyl)pyrazolo[1,5-α]pyrimidin-3-yl]-]	> 6.00	> 6.00
